Reference: patent US12606533B2, “3-phenylpropylamine derivative” (DAIICHI SANKYO COMPANY, LIMITED, priority 2023, dated 2026)

Tests used:
CYP17A1 = assay: Changes in SF1 target gene expression for NCI-H295R: CYP17A1 mRNA (qPCR); format: cell-based; settings: Homo sapiens, NCI-H295R cells, 24 hr
Procedure: (§1) NCI-H295R cells were cultured in a 5% CO2 incubator at 37° C. using DMEM/F12 medium (Thermo Fisher Scientific Inc.) containing 2.5% Nu-Serum (registered trademark) Growth Medium Supplement (Corning) and 1% Corning ITS+ Premix Universal Culture Supplement (Corning). The DMSO solution of each compound was serially diluted with DMSO using a D300e Digital Dispenser (TECAN), and the compounds were added to a 96-well plate (FALCON). NCI-H295R cells were seeded at 1×10^4 cells/50 μL/well on the 96-well plate containing the compounds added thereto, and cultured for 24 hr in a 5% CO2 incubator at 37° C. The final DMSO concentration in the medium was adjusted to 0.1% (v/v) in all cases, and the concentration range of the compounds was set to 1000 nM to 0.32 nM with a common ratio […]. After the completion of culture, the medium was discarded, 50 μL/well of chilled D-PBS (Sigma Aldrich) was added to wash the cells, and D-PBS was discarded. After washing, 25 μL/well of Cells-to-CT (registered trademark) Bulk Lysis Reagents (Thermo Fisher Scientific, Inc.) was added to the wells, the mixture was stirred for 5 min with a plate mixer, and 2.5 μL/well of the reaction quenching liquid was added to prepare cell lysate. The cell lysate was dispensed into a 96-well plate (Corning) at 10 μL/well, and 40 μL/well of Cells-to-CT Bulk RT Reagents (Thermo Fisher Scientific, Inc.) was added. A reverse transcription reaction was performed at 37° C. for 50 min using a thermal cycler, and the reverse transcriptase was inactivated by heating at 95° C. for 5 min, and then stored at 10° C. PrimeTime (registered trademark) Gene Expression Master Mix (Integrated DNA Technologies), the target genes CYP11A1, CYP17A1, CYP21A2, or STAR, and the control gene ACTB PrimeTime (registered trademark) qPCR Probe Assays (Integrated DNA Technologies), and Nuclease free water were mixed at a ratio of 20:1:1:10 to prepare a PrimerProbe mix. The prepared PrimerProbe mix was added to a 384-well plate at 8 μL/well, and the cDNA obtained by reverse transcription was added at 2 μL/well. Real-Time PCR was performed under fast cycling conditions (95° C. for 3 min, followed by 40 cycles of 95° C. for 5 seconds and 62° C. for 30 seconds) to measure the fluorescent signal. The obtained data was analyzed using GraphPad Prism9 (GraphPad Software Inc.) to calculate the concentration (IC50 value) that reduces the mRNA expression level by 50%. The IC50 values (unit: nM) for CYP11A1, CYP17A1, CYP21A2, and STAR, of the compounds corresponding to each Example number are shown in Table 94.

SF1-LBD = SF1-LBD (Homo sapiens, UniProt Q13285); assay: Inhibitory activity against binding of DAX1 to SF1-LBD (AlphaLISA); settings: inhibition of binding of DAX1 peptide to His-SF1-LBD, read-out: cell-free SF1 IC50
Procedure: The binding activity of each compound to the SF-1 ligand binding domain (LBD) was evaluated using the binding inhibitory activity of each compound against binding of DAX1 to SF1-LBD as an index. 100 nM His-SF1-LBD, 2 nM Biotin-DAX1 peptide (Biotin-[…]-NH2) and each compound (8-point i1 dilution series with common ratio 2 from final concentration 2 μM) were mixed in assay buffer [25 mM HEPES (pH 7.5), 100 mM NaCl, 0.1% BSA, 0.01% CHAPS, 1 mM DTT] and reacted at room temperature for 30 min. Anti-6×His AlphaLISA Acceptor beads and Streptavidin-coated AlphaScreen Donor beads were mixed to a final concentrations of 5 μg/ml and 10 μg/ml, respectively, and reacted in the dark at room temperature for 60 min. AlphaLISA signals were detected using a multimode plate reader (EnVision Xcite, PerkinElmer). The binding rate of DAX1 peptide to SF1 was calculated from the luminescence amount (C) of the compound-free group and the luminescence amount (T) of the compound-added group, based on the following formula.
The DAX1 peptide binding rate at each concentration was analyzed using GraphPad Prism6 (GraphPad Software Inc.) to calculate the concentration (IC50 value) of each compound that inhibits 50% of the binding of DAX1 to SF1-LBD.

STAR = assay: Changes in SF1 target gene expression for NCI-H295R: STAR mRNA (qPCR); format: cell-based; settings: Homo sapiens, NCI-H295R cells, 24 hr
Procedure: as §1

CYP21A2 = assay: Changes in SF1 target gene expression for NCI-H295R: CYP21A2 mRNA (qPCR); format: cell-based; settings: Homo sapiens, NCI-H295R cells, 24 hr
Procedure: as §1

CYP11A1 = assay: Changes in SF1 target gene expression for NCI-H295R: CYP11A1 mRNA (qPCR); format: cell-based; settings: Homo sapiens, NCI-H295R cells, 24 hr
Procedure: as §1

Chain of SF1-LBD (Q13285 222-459 limits assumed): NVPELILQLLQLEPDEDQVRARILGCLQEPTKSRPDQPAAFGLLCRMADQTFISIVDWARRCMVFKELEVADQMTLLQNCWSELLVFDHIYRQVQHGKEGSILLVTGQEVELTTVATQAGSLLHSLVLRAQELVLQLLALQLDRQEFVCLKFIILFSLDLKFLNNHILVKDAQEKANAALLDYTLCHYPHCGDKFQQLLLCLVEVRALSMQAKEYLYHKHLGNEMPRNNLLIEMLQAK

COc1ccc(C2(CCN(Cc3ccc(Oc4ccc(CC(C)(C)C(=O)O)cc4)cc3)C(=O)C(C)(C)C)CCOC(C)(C)C2)cc1 (stereo not shown) [Example J4, 3-[4-(4-{[(2,2-Dimethylpropanoyl){2-[4-(4-methoxyphenyl)-2,2-dimethyltetrahydro-2H-pyran-4-yl]ethyl}amino]methyl}phenoxy)phenyl]-2,2-dimethylpropanoic acid]
IC50 (CYP17A1): 70 nM | IC50 (SF1-LBD): 39 nM | IC50 (STAR): 14 nM | IC50 (CYP21A2): 8.1 nM | IC50 (CYP11A1): 4.1 nM

COc1ccc(C2(CCN(CCC(F)(F)F)Cc3ccc(O[C@H]4CC[C@H](CC(=O)O)CC4)cc3)CCOC(C)(C)C2)cc1 (stereo partly drawn) [Example K5, [Trans-4-(4-{[{2-[4-(4-methoxyphenyl)-2,2-dimethyltetrahydro-2H-pyran-4-yl]ethyl}(3,3,3-trifluoropropyl)amino]methyl}phenoxy)cyclohexyl]acetic acid]
IC50 (CYP17A1): 141 nM | IC50 (SF1-LBD): 29 nM | IC50 (STAR): 47 nM | IC50 (CYP21A2): 28 nM | IC50 (CYP11A1): 12 nM

CNc1ccc(C2(CCN(Cc3ccc(O[C@H]4CC[C@H](C(=O)O)CC4)cc3)C(=O)C(C)(C)C)CCOC(C)(C)C2)cc1 (stereo partly drawn) [Example L2, Trans-4-(4-{[(2-{2,2-dimethyl-4-[4-(methylamino)phenyl]tetrahydro-2H-pyran-4-yl}ethyl) (2,2-dimethylpropanoyl)amino]methyl}phenoxy)cyclohexanecarboxylic acid]
IC50 (CYP17A1): 238 nM | IC50 (SF1-LBD): 32 nM | IC50 (STAR): 83 nM | IC50 (CYP21A2): 46 nM | IC50 (CYP11A1): 17 nM

COc1ccc([C@]2(CCN(Cc3ccc(O[C@H]4CC[C@H](C(=O)O)CC4)cc3)CC(C)(C)C(F)(F)F)CCOC(C)(C)C2)cc1 [Example M5, Trans-4-(4-{[{2-[(4R)-4-(4-methoxyphenyl)-2,2-dimethyltetrahydro-2H-pyran-4-yl]ethyl)(3,3,3-trifluoro-2,2-dimethylpropyl)amino]methyl}phenoxy)cyclohexanecarboxylic acid]
IC50 (CYP17A1): 13 nM | IC50 (SF1-LBD): 18 nM | IC50 (STAR): 3.9 nM | IC50 (CYP21A2): 4.3 nM | IC50 (CYP11A1): 2.8 nM

COc1ccc(C2(CCN(Cc3ccc(Oc4ccc(N=S(C)(C)=O)cc4)cc3)C(=O)C(C)(C)C)CCOC(C)(C)C2)cc1 (stereo not shown) [Example N2]
IC50 (CYP17A1): 113 nM | IC50 (SF1-LBD): 41 nM | IC50 (STAR): 39 nM | IC50 (CYP21A2): 30 nM | IC50 (CYP11A1): 19 nM

COc1ccc(C2(CCN(Cc3ccc(O[C@H]4CC[C@H](C(=O)O)CC4)cc3)c3ncc(F)cn3)CCOC(C)(C)C2)cc1 (stereo partly drawn) [Example O2, Trans-4-(4-{[(5-fluoropyrimidin-2-yl) {2-[4-(4-methoxyphenyl)-2,2-dimethyltetrahydro-2H-pyran-4-yl]ethyl}amino]methyl}phenoxy)cyclohexanecarboxylic acid]
IC50 (CYP17A1): 211 nM | IC50 (SF1-LBD): 36 nM | IC50 (STAR): 75 nM | IC50 (CYP21A2): 82 nM | IC50 (CYP11A1): 35 nM

COc1ccc([C@]2(CCN(Cc3ccc(Oc4ccc(C(C)C(=O)O)cc4)cc3)CC(C)(C)C(F)(F)F)CCOC(C)(C)C2)cc1 (stereo partly drawn) [Example P3, 2-[4-(4-{[{2-[(4R)-4-(4-Methoxyphenyl)-2,2-dimethyltetrahydro-2H-pyran-4-yl]ethyl}(3,3,3-trifluoro-2,2-dimethylpropyl)amino]methyl}phenoxy)phenyl]propanoic acid]
IC50 (CYP17A1): 137 nM | IC50 (SF1-LBD): 30 nM | IC50 (STAR): 19 nM | IC50 (CYP21A2): 9.8 nM | IC50 (CYP11A1): 4.4 nM

COc1ccc(C2(CCN(Cc3ccc(C(=O)c4ccc(CCC(=O)O)cc4)c(C)c3)C(=O)C(C)(C)C(F)(F)F)CCOC(C)(C)C2)cc1 (stereo not shown) [Example Q4, 3-[4-(4-{[{2-[4-(4-Methoxyphenyl)-2,2-dimethyltetrahydro-2H-pyran-4-yl]ethyl}(3,3,3-trifluoro-2,2-dimethylpropanoyl)amino]methyl}-2-methylbenzoyl)phenyl]propanoic acid]
IC50 (CYP17A1): 189 nM | IC50 (SF1-LBD): 35 nM | IC50 (STAR): 44 nM | IC50 (CYP21A2): 19 nM | IC50 (CYP11A1): 8.5 nM

CCO[C@@H](Cc1ccc(Oc2ccc(CN(CC[C@@]3(c4ccc(OC)cc4)CCOC(C)(C)C3)CC(C)(C)C(F)(F)F)cc2)cc1)C(=O)O [Example R3, (2S)-2-Ethoxy-3-[4-(4-{[{2-[(4R)-4-(4-methoxyphenyl)-2,2-dimethyltetrahydro-2H-pyran-4-yl]ethyl}(3,3,3-trifluoro-2,2-dimethylpropyl)amino]methyl}phenoxy)phenyl]propanoic acid]
IC50 (CYP17A1): 28 nM | IC50 (SF1-LBD): 27 nM | IC50 (STAR): 6.2 nM | IC50 (CYP21A2): 4.3 nM | IC50 (CYP11A1): 3.3 nM

COc1ccc([C@]2(CCN(Cc3ccc(O[C@H]4CC[C@H](CC(=O)O)CC4)nc3)CC(C)(C)C(F)(F)F)CCOC(C)(C)C2)cc1 [Example S4, {Trans-4-[(5-{[{2-[(4R)-4-(4-methoxyphenyl)-2,2-dimethyltetrahydro-2H-pyran-4-yl]ethyl}(3,3,3-trifluoro-2,2-dimethylpropyl)amino]methyl}pyridin-2-yl)oxy]cyclohexyl)acetic acid]
IC50 (CYP17A1): 12 nM | IC50 (SF1-LBD): 22 nM | IC50 (STAR): 3.2 nM | IC50 (CYP21A2): 2.2 nM | IC50 (CYP11A1): 1.2 nM

COc1ccc([C@]2(CCN(Cc3ccc(O[C@H]4CC[C@H](CC(=O)O)CC4)cc3)CC(C)(C)C(F)(F)F)CCOC(C)(C)C2)cc1 [Example T2, [Trans-4-(4-{[{2-[(4R)-4-(4-methoxyphenyl)-2,2-dimethyltetrahydro-2H-pyran-4-yl]ethyl}(3,3,3-trifluoro-2,2-dimethylpropyl)amino]methyl}phenoxy)cyclohexyl]acetic acid]
IC50 (CYP17A1): 24 nM | IC50 (SF1-LBD): 26 nM | IC50 (STAR): 4.1 nM | IC50 (CYP21A2): 2.4 nM | IC50 (CYP11A1): 1.2 nM
